Data from article PMC5561102, “Fusion protein analysis reveals the precise regulation between Hsp70 and Hsp100 during protein disaggregation” (Scientific Reports, 2017).

Key:
Assay in all cases: UV difference spectrum after size exclusion chromatography
Conditions in all cases: 3 mM ATP, 55 °C 60 min incubation, pH 7.5, 5 mM MgCl2; binding stoichiometry, not an affinity
TDnaK [1] = target: T1, TDnaK (Thermus thermophilus, UniProt Q56235, K69A)
T1 construct: gene dnaK; full length, untagged (plasmid pMDK6), expressed in E. coli; C-terminus Asp615

TDnaK [2] = target: T2, TDnaK (Thermus thermophilus, UniProt Q56235)
T2 construct: gene dnaK; full length, untagged (plasmid pMDK6), expressed in E. coli; C-terminus Asp615

TDnaK [3] = target: T3, TDnaK (Thermus thermophilus, UniProt Q56235, T195A)
T3 construct: gene dnaK; full length, untagged (plasmid pMDK6), expressed in E. coli; C-terminus Asp615
T3 sequence (Q56235 whole entry T195A): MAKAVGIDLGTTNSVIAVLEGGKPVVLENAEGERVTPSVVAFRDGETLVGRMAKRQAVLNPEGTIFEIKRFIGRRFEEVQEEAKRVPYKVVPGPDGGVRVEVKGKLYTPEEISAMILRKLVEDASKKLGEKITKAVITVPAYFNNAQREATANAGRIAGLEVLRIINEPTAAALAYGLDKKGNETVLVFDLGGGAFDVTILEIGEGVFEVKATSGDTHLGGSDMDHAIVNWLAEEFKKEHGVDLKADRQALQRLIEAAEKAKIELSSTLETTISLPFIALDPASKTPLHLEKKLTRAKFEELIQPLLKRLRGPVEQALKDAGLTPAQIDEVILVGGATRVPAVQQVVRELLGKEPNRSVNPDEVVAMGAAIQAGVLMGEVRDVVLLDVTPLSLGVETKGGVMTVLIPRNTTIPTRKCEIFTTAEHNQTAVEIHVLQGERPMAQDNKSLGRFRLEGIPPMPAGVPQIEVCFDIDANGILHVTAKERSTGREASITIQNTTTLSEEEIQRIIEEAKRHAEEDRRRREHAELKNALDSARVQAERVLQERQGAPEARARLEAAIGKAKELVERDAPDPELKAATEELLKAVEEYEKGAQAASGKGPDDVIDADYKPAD

T2 sequence (Q56235 whole entry): as the sequence (Q56235 whole entry T195A) above, with A195T counted along it
T1 sequence (Q56235 whole entry K69A): as the sequence (Q56235 whole entry T195A) above, with K69A, A195T counted along it

Which “bound ATP per TDnaK” value (TDnaK [1]) does the source give for `Nc1ncnc2c1ncn2[C@@H]1O[C@H](COP(=O)(O)OP(=O)(O)OP(=O)(O)O)[C@@H](O)[C@H]1O` [ATP] here?
Its value is 0.89 mol/mol.

What about the “bound ATP per TDnaK” value (TDnaK [2]) of the same compound?
Its value is 0.70 mol/mol.

And the “bound ATP per TDnaK” value (TDnaK [3])?
Its value is 0.64 mol/mol.
